The record followed here is the supplement of paper PMC10307832.

Assay in all cases: relative viability (nuclei count vs DMSO), 5 days (fraction); higher = more cells survive
Compound in the assay “Sulindac + Bortezomib”: CC1=C(CC(=O)O)c2cc(F)ccc2/C1=C\c1ccc([S+](C)[O-])cc1 [Sulindac] + CC(C)C[C@H](NC(=O)[C@H](Cc1ccccc1)NC(=O)c1cnccn1)B(O)O [Bortezomib] (partner 0.002 µM)
The method in brief:
(§1)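 Lung cancer cell lines in 1536-well plates were dosed by pin tool the day after seeding, either with one drug alone or with a fixed anchor-drug dose plus five library-drug doses (not always all listed) in √10 steps. After 5 days, cells were fixed and their nuclei stained in one step (final 0.05% Triton X-100, 1% formaldehyde, 1 ug/ml Hoechst), then counted on 4× images. Relative viability is the nuclei count in treated wells divided by that in vehicle wells. Values are medians of duplicate plates.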

Compound in the assay “Sulindac + Vorinostat”: CC1=C(CC(=O)O)c2cc(F)ccc2/C1=C\c1ccc([S+](C)[O-])cc1 [Sulindac] + O=C(CCCCCCC(=O)Nc1ccccc1)NO [Vorinostat] (partner 1 µM)
Put shortly:
as §1

Compound in assay [1]: CN[C@@H]1C[C@H]2O[C@@](C)([C@@H]1OC)n1c3ccccc3c3c4c(c5c6ccccc6n2c5c31)C(=O)NC4 [Staurosporine] + CC(C)C[C@H](NC(=O)[C@H](Cc1ccccc1)NC(=O)c1cnccn1)B(O)O [Bortezomib] (partner 0.002 µM)
The method in brief:
as §1

Compound in assay [2]: O=c1[nH]cc(F)c(=O)[nH]1 [5-Fluorouracil] + CC(C)C[C@H](NC(=O)[C@H](Cc1ccccc1)NC(=O)c1cnccn1)B(O)O [Bortezomib] (partner 0.002 µM)
The method in brief: as §1

As to UMC-11, the relative viability with Sulindac + Bortezomib (first compound 0.08 µM) came out at 0.952; with Sulindac + Bortezomib (first compound 0.253 µM), 0.996; in the assay with Sulindac + Bortezomib (first compound 0.8 µM), 0.359; in the assay with Sulindac + Bortezomib (first compound 2.53 µM), 0.703; with Sulindac + Bortezomib (first compound 8 µM) it was 0.846; with Sulindac + Vorinostat (first compound 0.08 µM) it was 0.342. Further, the relative viability was determined as 0.411 in the assay with Sulindac + Vorinostat (first compound 0.253 µM); 0.374 in the assay with Sulindac + Vorinostat (first compound 0.8 µM); 0.338 with Sulindac + Vorinostat (first compound 2.53 µM); 0.386 with Sulindac + Vorinostat (first compound 8 µM); 0.664 in assay [1] (first compound 0.005 µM); 0.131 in assay [1] (first compound 0.01581 µM). The relative viability in assay [1] (first compound 0.05 µM) turned out to be 0.454; in assay [1] (first compound 0.1581 µM) it was 0.0878; in assay [1] (first compound 0.5 µM) it was 0.0678; in assay [2] (first compound 0.02 µM), 0.674; in assay [2] (first compound 0.2 µM), 0.542; in assay [2] (first compound 0.6325 µM), 0.368. In addition, in assay [2] (first compound 2 µM), the relative viability amounted to 0.35.
